Read-outs that look alike come from different tables or passages of the source.
Assays:
Format in all cases: in vivo
Setaria viridis = assay: Weeding effect in post-emergence stage (greenhouse pot spray)
Excerpt: (§1) The activity level criteria for plant damage (i.e., growth control rate) are as follows:
(§2) The above growth control rates are fresh weight control rates.
(§3) Experiment on weeding effect in post-emergence stage: monocotyledonous and dicotyledonous weed seeds (Descurainia sophia, Capsella bursa-pastoris, Abutilon theophrasti, Galium aparine, Stellaria media, Lithospermum arvense, rorippa indica, Alopecurus aequalis, Beckmannia syzigachne, Sclerochloa dura, Phleum paniculatum, Bromus japonicus, Aegilops tauschii, Phalaris arundinacea, Amaranthus retroflexus, Chenopodiaceae, Commelina communis, Sonchus arvensis, convolvulus arvensis, Cirsium setosum, Solanum nigrum, Acalypha australis, Digitaria sanguinalis, Echinochloa crusgalli, Setaria viridis, Setaria glauca, Leptochloa chinensis, Monochoria vaginalis, Sagittaria trifolia, Scirpus juncoides, Cyperus rotundus, Cyperus iria, Cyperus difformis, Fimbristylis, Portulaca oleracea, Xanthium sibiricum, Pharbitis nil) and major crop seeds (wheat, corn, rice, soybean, cotton, oilseed rape, millet, sorghum, potato, sesame, ricinus) were placed in plastic pots filled with soil, then covered with 0.5-2 cm of soil, allowed to grow in a good greenhouse environment. After 2 weeks of sowing, the test plants were treated in the 2 to 3 leaf stage. The tested compounds of the present invention were respectively dissolved in acetone, then added with Tween 80 and 1.5 liter/ha of emulsifiable concentrate of methyl oleate as synergist, diluted with a certain amount of water to obtain a solution with a certain concentration, and sprayed with a spray tower onto the plants. After the application, the plants were cultured for 3 weeks in the greenhouse, and then the experimental results of the weeding were counted. […]

Echinochloa crusgalli = assay: as above; details: for Echinochloa crusgah (activity level): Table 2, dose 500 g a.i./ha
Excerpt: as §1, §2, §3

Digitaria sanguinalis = assay: as above; details: for Digitaria sanguinalis (activity level): Table 2, dose 500 g a.i./ha
Excerpt: as §1, §2, §3

Abutilon theophrasti = assay: as above; details: Table 2, dose 500 g a.i./ha
Excerpt: as §1, §2, §3

weeds = assay: Actual control effects and combined effects of mixtures of active ingredients (i) and (ii), stem-leaf treatment, Gowing method; details: 20 days; for pest or weed control at 9 g/ha / pest or weed control at […]: 480 h, read-out: Control effect of (ii) alone at corresponding dose
Method: According to the actual control effect and the property of the herbicides, the balance of the formula and other factors, the optimal ratio was determined. In the calculation formula: X represents the fresh weight inhibition rate when the active ingredient (i) is used in an amount of P; and Y represents the fresh weight inhibition rate when the active ingredient (ii) is used in an amount of Q. The statistical results are shown in Tables 9-11 below.

[1] = Echinochloa phyllopogon, (ii) 0.6 g a.i./mu
[2] = Echinochloa phyllopogon, (ii) 0.6 g a.i./mu, stem-leaf treatment
[3] = Echinochloa phyllopogon, (ii) 15 g a.i./mu, stem-leaf treatment
[4] = Echinochloa phyllopogon, (ii) 15 g a.i./mu

Cc1nnc(NC(=O)c2ccc(C(F)(F)F)c([S@+](C)[O-])c2F)o1 [1-2 (R-configuration)]
Setaria viridis (activity level) (Setaria viridis; Table 3, dose 7.5 g a.i./ha): 0 (Level 0: growth control rate is less than 5%) | Setaria viridis (activity level) (Setaria viridis; Table 3, dose 15 g a.i./ha): 2 (Level 2: growth control rate is greater than or equal to 20% and less than 40%) | Setaria viridis (activity level) (Setaria viridis; Table 3, dose 30 g a.i./ha): 3 (Level 3: growth control rate is greater than or equal to 40% and less than 60%) | Setaria viridis (activity level) (Setaria viridis; Table 3, dose 60 g a.i./ha): 3 (Level 3: growth control rate is greater than or equal to 40% and less than 60%) | Echinochloa crusgali (activity level) (Echinochloa crusgalli; Table 3, dose 7.5 g a.i./ha): 0 (Level 0: growth control rate is less than 5%) | Echinochloa crusgali (activity level) (Echinochloa crusgalli; Table 3, dose 15 g a.i./ha): 1 (Level 1: growth control rate is greater than or equal to 5% and less than 20%) | Echinochloa crusgali (activity level) (Echinochloa crusgalli; Table 3, dose 30 g a.i./ha): 3 (Level 3: growth control rate is greater than or equal to 40% and less than 60%) | Echinochloa crusgali (activity level) (Echinochloa crusgalli; Table 3, dose 60 g a.i./ha): 4 (Level 4: growth control rate is greater than or equal to 60% and less than 85%) | Digitaria sanguinahs (activity level) (Digitaria sanguinalis; Table 3, dose 7.5 g a.i./ha): 0 (Level 0: growth control rate is less than 5%) | Digitaria sanguinahs (activity level) (Digitaria sanguinalis; Table 3, dose 15 g a.i./ha): 1 (Level 1: growth control rate is greater than or equal to 5% and less than 20%) | Digitaria sanguinahs (activity level) (Digitaria sanguinalis; Table 3, dose 30 g a.i./ha): 3 (Level 3: growth control rate is greater than or equal to 40% and less than 60%) | Digitaria sanguinahs (activity level) (Digitaria sanguinalis; Table 3, dose 60 g a.i./ha): 4 (Level 4: growth control rate is greater than or equal to 60% and less than 85%)

CC[S@+]([O-])c1c(C(F)(F)F)ccc(C(=O)Nc2nnc(C)o2)c1F [1-5 (R-configuration)]
Setaria viridis (activity level) (Setaria viridis; Table 3, dose 3.75 g a.i./ha): 3 (Level 3: growth control rate is greater than or equal to 40% and less than 60%) | Setaria viridis (activity level) (Setaria viridis; Table 3, dose 7.5 g a.i./ha): 4 (Level 4: growth control rate is greater than or equal to 60% and less than 85%) | Setaria viridis (activity level) (Setaria viridis; Table 3, dose 15 g a.i./ha): 5 (Level 5: growth control rate is above 85%) | Setaria viridis (activity level) (Setaria viridis; Table 3, dose 30 g a.i./ha): 5 (Level 5: growth control rate is above 85%) | Setaria viridis (activity level) (Setaria viridis; Table 3, dose 60 g a.i./ha): 5 (Level 5: growth control rate is above 85%) | Echinochloa crusgali (activity level) (Echinochloa crusgalli; Table 3, dose 3.75 g a.i./ha): 4 (Level 4: growth control rate is greater than or equal to 60% and less than 85%) | Echinochloa crusgali (activity level) (Echinochloa crusgalli; Table 3, dose 7.5 g a.i./ha): 5 (Level 5: growth control rate is above 85%) | Echinochloa crusgali (activity level) (Echinochloa crusgalli; Table 3, dose 15 g a.i./ha): 5 (Level 5: growth control rate is above 85%) | Echinochloa crusgali (activity level) (Echinochloa crusgalli; Table 3, dose 30 g a.i./ha): 5 (Level 5: growth control rate is above 85%) | Echinochloa crusgali (activity level) (Echinochloa crusgalli; Table 3, dose 60 g a.i./ha): 5 (Level 5: growth control rate is above 85%) | Digitaria sanguinahs (activity level) (Digitaria sanguinalis; Table 3, dose 3.75 g a.i./ha): 3 (Level 3: growth control rate is greater than or equal to 40% and less than 60%) | Digitaria sanguinahs (activity level) (Digitaria sanguinalis; Table 3, dose 7.5 g a.i./ha): 4 (Level 4: growth control rate is greater than or equal to 60% and less than 85%) | Digitaria sanguinahs (activity level) (Digitaria sanguinalis; Table 3, dose 15 g a.i./ha): 5 (Level 5: growth control rate is above 85%) | Digitaria sanguinahs (activity level) (Digitaria sanguinalis; Table 3, dose 30 g a.i./ha): 5 (Level 5: growth control rate is above 85%) | Digitaria sanguinahs (activity level) (Digitaria sanguinalis; Table 3, dose 60 g a.i./ha): 5 (Level 5: growth control rate is above 85%)

COCC[S@+]([O-])c1c(C(F)(F)F)ccc(C(=O)Nc2nnc(C)o2)c1F [1-57 (R-configuration)]
Setaria viridis (activity level) (Setaria viridis; Table 3, dose 125 g a.i./ha): 5 (Level 5: growth control rate is above 85%) | Echinochloa crusgali (activity level) (Echinochloa crusgalli; Table 3, dose 125 g a.i./ha): 5 (Level 5: growth control rate is above 85%) | Digitaria sanguinahs (activity level) (Digitaria sanguinalis; Table 3, dose 125 g a.i./ha): 5 (Level 5: growth control rate is above 85%)

Cc1nnc(NC(=O)c2ccc(C(F)(F)F)c([S@+]([O-])CC(C)(C)C)c2F)o1 [1-392 (R-configuration)]
Setaria viridis (activity level) (Setaria viridis; Table 3, dose 500 g a.i./ha): 5 (Level 5: growth control rate is above 85%) | Echinochloa crusgali (activity level) (Echinochloa crusgalli; Table 3, dose 500 g a.i./ha): 5 (Level 5: growth control rate is above 85%) | Digitaria sanguinahs (activity level) (Digitaria sanguinalis; Table 3, dose 500 g a.i./ha): 5 (Level 5: growth control rate is above 85%)

C#CCSc1c(C(F)(F)F)ccc(C(=O)Nc2nnc(C)o2)c1F [Compound 1-43]
Echinochloa crusgah (activity level) (Echinochloa crusgalli): 5 (Level 5: growth control rate is above 85%)

Cc1nnc(NC(=O)c2ccc(C(F)(F)F)c(SCCF)c2F)o1 [Compound 1-48]
Echinochloa crusgah (activity level) (Echinochloa crusgalli): 5 (Level 5: growth control rate is above 85%) | Digitaria sanguinalis (activity level) (Digitaria sanguinalis): 5 (Level 5: growth control rate is above 85%)

Cc1nnc(NC(=O)c2ccc(C(F)(F)F)c(SC#N)c2F)o1 [Compound 1-68]
Echinochloa crusgah (activity level) (Echinochloa crusgalli): 5 (Level 5: growth control rate is above 85%)

Cc1nnc(NC(=O)c2ccc(C(F)(F)F)c(SCC#N)c2F)o1 [Compound 1-69]
Echinochloa crusgah (activity level) (Echinochloa crusgalli): 5 (Level 5: growth control rate is above 85%)

CC(=O)Sc1c(C(F)(F)F)ccc(C(=O)Nc2nnc(C)o2)c1F [Compound 1-70]
Echinochloa crusgah (activity level) (Echinochloa crusgalli): 5 (Level 5: growth control rate is above 85%)

Cc1nnc(NC(=O)c2ccc(C(F)(F)F)c(S(=O)(=O)C(C)(C)C)c2F)o1 [Compound 1-138]
Echinochloa crusgah (activity level) (Echinochloa crusgalli): 5 (Level 5: growth control rate is above 85%) | Digitaria sanguinalis (activity level) (Digitaria sanguinalis): 5 (Level 5: growth control rate is above 85%)

Cc1nnc(NC(=O)c2ccc(C(F)(F)F)c([S+]([O-])C3CCCCC3)c2F)o1 (stereo not shown) [Compound 1-394]
Echinochloa crusgah (activity level) (Echinochloa crusgalli): 5 (Level 5: growth control rate is above 85%)

Cc1nnc(NC(=O)c2ccc(C(F)(F)F)c([S+]([O-])CCO)c2F)o1 (stereo not shown) [Compound 1-429]
Abutilion theophrasti (activity level) (Abutilon theophrasti): 5 (Level 5: growth control rate is above 85%) | Echinochloa crusgah (activity level) (Echinochloa crusgalli): 5 (Level 5: growth control rate is above 85%) | Digitaria sanguinalis (activity level) (Digitaria sanguinalis): 5 (Level 5: growth control rate is above 85%)

Cc1nnc(NC(=O)c2ccc(C(F)(F)F)c([S+]([O-])CCCO)c2F)o1 (stereo not shown) [Compound 1-430]
Abutilion theophrasti (activity level) (Abutilon theophrasti): 5 (Level 5: growth control rate is above 85%) | Echinochloa crusgah (activity level) (Echinochloa crusgalli): 5 (Level 5: growth control rate is above 85%) | Digitaria sanguinalis (activity level) (Digitaria sanguinalis): 5 (Level 5: growth control rate is above 85%)

CCOC[S+]([O-])c1c(C(F)(F)F)ccc(C(=O)Nc2nnc(C)o2)c1F (stereo not shown) [Compound 1-444]
Echinochloa crusgah (activity level) (Echinochloa crusgalli): 5 (Level 5: growth control rate is above 85%)

CC(C)C[S+]([O-])c1c(C(F)(F)F)ccc(C(=O)Nc2nnco2)c1F (stereo not shown) [Compound 3-20]
Echinochloa crusgah (activity level) (Echinochloa crusgalli): 5 (Level 5: growth control rate is above 85%)

Cc1nn(C)cc1C(=O)Oc1c(C(=O)c2ccc(C(F)(F)F)cc2S(C)(=O)=O)c(C)nn1C [Shuangzuocaotong]
Control effect of (ii) alone at corresponding dose (weeds; Digitaria sanguinalis, (ii) 8 g a.i./mu, stem-leaf treatment): 75.1% | Control effect of (ii) alone at corresponding dose (weeds; [1]): 7.8% | Control effect of (ii) alone at corresponding dose (weeds; [2]): 7.8% | Control effect of (ii) alone at corresponding dose (weeds; Echinochloa phyllopogon, (ii) 8 g a.i./mu): 70.9% | Control effect of (ii) alone at corresponding dose (weeds; Echinochloa phyllopogon, (ii) 8 g a.i./mu, stem-leaf treatment): 70.9%

CCNc1nc(NCC)nc(SC)n1 [Simetryn]
pest or weed control at 9 g/ha (weeds; [2]): 20.8% | pest or weed control at […] (weeds; [3]): 45.3% | Control effect of (ii) alone at corresponding dose (weeds; [1]): 20.8% | Control effect of (ii) alone at corresponding dose (weeds; [4]): 45.3%

CS(=O)(=O)c1ccc(C(=O)C2C(=O)CCCC2=O)c(Cl)c1COCC1CCCO1 (stereo not shown) [Tefuryltrione]
Control effect of (ii) alone at corresponding dose (weeds; Cyperus difformis, (ii) 1 g a.i./mu): 37.4% | Control effect of (ii) alone at corresponding dose (weeds; Cyperus difformis, (ii) 1 g a.i./mu, stem-leaf treatment): 37.4% | Control effect of (ii) alone at corresponding dose (weeds; Cyperus difformis, (ii) 1.8 g a.i./mu): 63.2%

CCNc1nc(Cl)nc(NC(C)(C)C)n1 [Terbuthylazine]
pest or weed control at 9 g/ha (weeds; [1]): 0.95% | pest or weed control at […] (weeds; [3]): 18.6% | Control effect of (ii) alone at corresponding dose (weeds; [4]): 18.6%

COc1nc(OC)nc(C(=O)c2cccc(F)c2N(C)S(=O)(=O)C(F)F)n1 [Triafamone]
Control effect of (ii) alone at corresponding dose (weeds; Monochoria vaginalis, (ii) 0.5 g a.i./mu): 16.3% | Control effect of (ii) alone at corresponding dose (weeds; Monochoria vaginalis, (ii) 0.5 g a.i./mu, stem-leaf treatment): 16.3% | Control effect of (ii) alone at corresponding dose (weeds; Monochoria vaginalis, (ii) 1 g a.i./mu): 29.6% | Control effect of (ii) alone at corresponding dose (weeds; Monochoria vaginalis, (ii) 1 g a.i./mu, stem-leaf treatment): 29.6%

Oxadiargyl
Control effect of (ii) alone at corresponding dose (weeds; [1]): 3.4% | Control effect of (ii) alone at corresponding dose (weeds; [2]): 3.4% | Control effect of (ii) alone at corresponding dose (weeds; [4]): 35.3% | Control effect of (ii) alone at corresponding dose (weeds; [3]): 35.3%

Sanzuohuangcaotong
Control effect of (ii) alone at corresponding dose (weeds; Monochoria vaginalis, (ii) 3 g a.i./mu): 21.5% | Control effect of (ii) alone at corresponding dose (weeds; Monochoria vaginalis, (ii) 3 g a.i./mu, stem-leaf treatment): 21.5% | Control effect of (ii) alone at corresponding dose (weeds; Monochoria vaginalis, (ii) 6 g a.i./mu): 40.1%
